Measurements taken from PMC8900595 (Journal of medicinal chemistry, 2021).

How the values were obtained:
WSN-PB2-Nanoluc virus = assay type: cell-based, influenza A virus
A/WSN/33 = test: microbe, parasite or virus in culture; assay type: cell-based, influenza A virus
A549 cells = conditions: human

Row | Molecule | antiviral activity as described in SAR text (A/WSN/33) | Cytotoxicity (MTT) CC10 (A549 cells) [µM] | selectivity index (A/WSN/33) | further results
1 | 2,5-Dichloro-N-(4-chloro-2-methylphenyl)benzamide [compound 51] |  |  |  | activity under the assay conditions (WSN-PB2-Nanoluc virus): inactive
2 | Cc1ccccc1NS(=O)(=O)c1cc(Cl)ccc1Cl [compound 2, 2,5-Dichloro-N-(o-tolyl)benzenesulfonamide] | substantially diminished activity | >5 |  | 
3 | Cc1ccccc1N(C)S(=O)(=O)c1cc(Cl)ccc1Cl [compound 3, 2,5-Dichloro-N-methyl-N-(o-tolyl)benzenesulfonamide] | substantially diminished activity | >5 |  | 
4 | C=CCN(c1ccccc1C)S(=O)(=O)c1cc(Cl)ccc1Cl [compound 4, N-Allyl-2,5-dichloro-N-(o-tolyl)benzenesulfonamide] |  | >5 | >42 | 
5 | C#CCN(c1ccccc1C)S(=O)(=O)c1cc(Cl)ccc1Cl [compound 5, 2,5-Dichloro-N-(prop-2-yn-1-yl)-N-(o-tolyl)benzenesulfonamide] |  | >5 | >13 | 
6 | Cc1ccccc1N(C(C)C)S(=O)(=O)c1cc(Cl)ccc1Cl [compound 6, 2,5-Dichloro-N-isopropyl-N-(o-tolyl)benzenesulfonamide] |  | >5 | >3 | loss of activity compared to compound 1 (A/WSN/33): greater than 10 fold
7 | CCN(c1ccccc1)S(=O)(=O)c1cc(Cl)ccc1Cl [compound 7, 2,5-Dichloro-N-ethyl-N-phenylbenzenesulfonamide] |  | >5 | >6 | loss of activity on removing the 2-methyl group (A/WSN/33): greater than 10 ×
8 | CCN(c1ccccc1Cl)S(=O)(=O)c1cc(Cl)ccc1Cl [compound 8, 2,5-Dichloro-N-(2-chlorophenyl)-N-ethylbenzenesulfonamide] | less effective | >5 | >33 | 
9 | CCN(c1ccccc1C#N)S(=O)(=O)c1cc(Cl)ccc1Cl [compound 9, 2,5-Dichloro-N-(2-cyanophenyl)-N-ethylbenzenesulfonamide] | less effective | >5 | >29 | 
10 | CCN(c1ccc(F)cc1)S(=O)(=O)c1cc(Cl)ccc1Cl [compound 10] | similarly potent | >5 | >74 | 
11 | CCN(c1ccc(C)cc1)S(=O)(=O)c1cc(Cl)ccc1Cl [compound 11, 2,5-Dichloro-N-ethyl-N-(p-tolyl)benzenesulfonamide] | well tolerated | >25 | >298 | 
12 | C=CCN(c1ccc(Cl)cc1C)S(=O)(=O)c1cc(Cl)ccc1Cl [compound 13, N-Allyl-2,5-dichloro-N-(4-chloro-2-methylphenyl)benzenesulfonamide] | generally more potent | >5 | >135 | 
13 | C#CCN(c1ccc(Cl)cc1C)S(=O)(=O)c1cc(Cl)ccc1Cl [compound 14, 2,5-Dichloro-N-(4-chloro-2-methylphenyl)-N-(prop-2-yn-1-yl)benzenesulfonamide] | generally more potent | >5 | >42 | 
14 | Cc1cc(Cl)ccc1N(CC1CC1)S(=O)(=O)c1cc(Cl)ccc1Cl [compound 15, 2,5-Dichloro-N-(4-chloro-2-methylphenyl)-N-(cyclopropylmethyl)benzenesulfonamide] |  | >5 | >10 | less active than the N-ethyl version (12) (A/WSN/33): greater than 10 ×
15 | COCCN(c1ccc(Cl)cc1C)S(=O)(=O)c1cc(Cl)ccc1Cl [compound 16, 2,5-Dichloro-N-(4-chloro-2-methylphenyl)-N-(2-methoxyethyl)-benzenesulfonamide] | lower activity | >5 | >4 | 
16 | Cc1cc(Cl)ccc1N(CCO)S(=O)(=O)c1cc(Cl)ccc1Cl [compound 17, 2,5-Dichloro-N-(4-chloro-2-methylphenyl)-N-(2-hydroxyethyl)benzenesulfonamide] | lower activity | >5 |  | 
17 | Cc1cc(Cl)ccc1N(CCF)S(=O)(=O)c1cc(Cl)ccc1Cl [compound 18, 2,5-Dichloro-N-(4-chloro-2-methylphenyl)-N-(2-fluoroethyl)-benzenesulfonamide] | lower activity | >5 | >9 | IC50 (A/WSN/33; Influenza A virus, WSN, A549, 24 h, read-out: viral replication IC50): 0.55 µM
18 | Cc1cc(Cl)ccc1N(C(F)F)S(=O)(=O)c1cc(Cl)ccc1Cl [compound 19, 2,5-Dichloro-N-(4-chloro-2-methylphenyl)-N-(difluoromethyl)benzenesulfonamide] | lower activity | >5 | >4 | 

Row | Molecule | antiviral activity as described in SAR text (A/WSN/33) | Cytotoxicity (MTT) CC10 (A549 cells) [µM] | selectivity index (A/WSN/33) | further results
19 | CCN(c1ccc(Cl)cc1F)S(=O)(=O)c1cc(Cl)ccc1Cl [compound 20, 2,5-Dichloro-N-(4-chloro-2-fluorophenyl)-N-ethylbenzenesulfonamide] |  | >5 | >33 | 
20 | CCN(c1c(C)cc(Cl)cc1Cl)S(=O)(=O)c1cc(Cl)ccc1Cl [compound 22, 2,5-Dichloro-N-(2,4-dichloro-6-methylphenyl)-N-ethylbenzenesulfonamide] | less active | >5 | >13 | 
21 | CCN(c1c(F)cc(Cl)cc1F)S(=O)(=O)c1cc(Cl)ccc1Cl [compound 23, 2,5-Dichloro-N-(4-chloro-2,6-difluorophenyl)-N-ethylbenzenesulfonamide] | less active |  | >12 | 
22 | CCOC(=O)Cc1ccc(N(CC)S(=O)(=O)c2cc(Cl)ccc2Cl)cc1 [compound 24, Ethyl 2-(4-((2,5-Dichloro-N-ethylphenyl)sulfonamido)phenyl)-acetate] |  | >5 | >63 | 
23 | CCN(c1ccc(CC(=O)O)cc1)S(=O)(=O)c1cc(Cl)ccc1Cl [compound 25, 2-(4-((2,5-Dichloro-N-ethylphenyl)sulfonamido)phenyl)acetic Acid] |  | >25 |  | 
24 | CCN(c1ccc(CCO)cc1)S(=O)(=O)c1cc(Cl)ccc1Cl [compound 26, 2,5-Dichloro-N-ethyl-N-(4-(2-hydroxyethyl)phenyl)-benzenesulfonamide] |  | >25 |  | 
25 | CCN(c1ccc(CCN)cc1)S(=O)(=O)c1cc(Cl)ccc1Cl [compound 27, N-(4-(2-Aminoethyl)phenyl)-2,5-dichloro-N-ethylbenzenesulfonamide] |  | >25 |  | 
26 | CCN(c1ccc(CCNC(C)=O)cc1)S(=O)(=O)c1cc(Cl)ccc1Cl [compound 28, N-(4-((2,5-Dichloro-N-ethylphenyl)sulfonamido)phenethyl)-acetamide] |  | >25 |  | 
27 | CCN(c1ccc(CC(=O)N2CCN(C)CC2)cc1)S(=O)(=O)c1cc(Cl)ccc1Cl [compound 29, 2,5-Dichloro-N-ethyl-N-(4-(2-(4-methylpiperazin-1-yl)-2-oxoethyl)phenyl)benzenesulfonamide] |  | >25 |  | 
28 | CCN(c1ccc(F)cc1F)S(=O)(=O)c1ccccc1 [compound 30, N-(2,4-Difluorophenyl)-N-ethylbenzenesulfonamide] | inactive |  |  | 
29 | CCN(c1ccc(F)cc1F)S(=O)(=O)c1ccccc1Cl [compound 31, 2-Chloro-N-(2,4-difluorophenyl)-N-ethylbenzenesulfonamide] | inactive |  |  | 
30 | CCN(c1ccc(F)cc1F)S(=O)(=O)c1cccc(Cl)c1 [compound 32, 3-Chloro-N-(2,4-difluorophenyl)-N-ethylbenzenesulfonamide] | maintained activity |  |  | lower level of activity than 21 (A/WSN/33): 10 fold
31 | CCN(c1ccc(F)cc1F)S(=O)(=O)c1ccc(Cl)cc1Cl [compound 33, 2,4-Dichloro-N-(2,4-difluorophenyl)-N-ethylbenzenesulfonamide] | inactive |  |  | 
32 | CCN(c1ccc(F)cc1F)S(=O)(=O)c1cc(Cl)cc(Cl)c1 [compound 34, 3,5-Dichloro-N-(2,4-difluorophenyl)-N-ethylbenzenesulfonamide] |  |  |  | less active than 1–55 (A/WSN/33): > 10 fold
33 | CCN(c1ccc(F)cc1F)S(=O)(=O)c1c(Cl)cccc1Cl [compound 35, 2,6-Dichloro-N-(2,4-difluorophenyl)-N-ethylbenzenesulfonamide] | inactive |  |  | 
34 | CCN(c1ccc(F)cc1F)S(=O)(=O)c1ccc(Cl)c(Cl)c1 [compound 36, 3,4-Dichloro-N-(2,4-difluorophenyl)-N-ethylbenzenesulfonamide] | inactive |  |  | 
35 | CCN(c1ccc(F)cc1F)S(=O)(=O)c1cccc(Cl)c1Cl [compound 37, 2,3-Dichloro-N-(2,4-difluorophenyl)-N-ethylbenzenesulfonamide] | inactive |  |  | 
